Read-outs that look alike come from different tables or passages of the source.
Assays:
tau protein (4R) [1] = molecular target: T1, tau protein (4R) (Homo sapiens, UniProt P10636); assay: ThT fluorescence of heparin-induced aggregation of purified tau 4R, single concentration […]; format: biochemical
T1 construct: gene MAPT; fragment 4R (htau244–372), His-tagged

tau protein (4R) [2] = molecular target: T1, tau protein (4R); assay: ThT fluorescence of heparin-induced aggregation of purified tau 4R; supported by AFM and Raman; format: biochemical

T1 sequence (P10636 561-689): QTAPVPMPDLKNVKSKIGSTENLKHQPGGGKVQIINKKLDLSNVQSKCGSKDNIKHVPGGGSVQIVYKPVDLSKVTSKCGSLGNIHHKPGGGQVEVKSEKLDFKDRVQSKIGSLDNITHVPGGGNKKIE

CC(C)c1cc2c(c(O)c1O)[C@@]13CCCC(C)(C)[C@@H]1[C@H](O)[C@@H]2OC3=O [compound 4, epiisorosmanol] was tested, and the inhibition at 50 µM (tau protein (4R) [1]; read-out: Inhibition (%)) was 70%.

Compound CC(C)c1cc2c(c(O)c1O)[C@@]1(C(=O)O)CCCC(C)(C)[C@@H]1CC2 [compound 2, carnosic acid] has an inhibition at 50 µM (tau protein (4R) [1]) of 65%.

Work on CC(C)c1cc2c(c(O)c1O)[C@@]13CCCC(C)(C)[C@@H]1C[C@@H]2OC3=O [compound 1, carnosol] yielded an inhibition at 50 µM (tau protein (4R) [1]; read-out: Inhibition (%)) of 68%.

CC(C)c1cc2c(c(O)c1O)[C@@]13CCCC(C)(C)[C@@H]1[C@H](OC3=O)[C@H]2O [compound 3, rosmanol] showed an inhibition at 50 µM (tau protein (4R) [1]; read-out: Inhibition (%)) of 50%.

In the case of O=C(/C=C/c1ccc(O)c(O)c1)O[C@H](Cc1ccc(O)c(O)c1)C(=O)O [compound 5, rosmarinic acid], the IC50 (tau protein (4R) [2]) is reported as 7.7 µM.
